Measured values reported in patent publication US8148391B2 (Cephalon, Inc., priority 2006, dated 2012).
Where two headings read alike, the source gives them in different places.

What was measured:
[1] = biological target: T1, baculovirus-expressed ALK (Homo sapiens, UniProt Q9UM73); test: ALK Kinase Assay (ELISA-type, time-resolved fluorescence); type: biochemical
T1 construct: host or cells: baculovirus expression system
Summary of the method: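 Substrate coating: phospholipase C-γ, 10 μg/mL in TBS. Kinase step: 30 ng/ml ALK, 15 min, 37° C. Detection and analysis: Eu-N1 PT66 antibody, with IC50 fitted as a sigmoidal variable-slope dose-response curve.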

[2] = biological target: T2, c-Met (cytoplasmic domain) (Homo sapiens, UniProt P08581); test: c-Met Kinase Assay (same methods as for ALK, with modifications); type: biochemical
T2 construct: 10 ng/mL c-Met (cytoplasmic domain, Invitrogen Corporation #PV3143); purchased Invitrogen Corporation PV3143
T2 sequence (P08581 956-1390 limits assumed): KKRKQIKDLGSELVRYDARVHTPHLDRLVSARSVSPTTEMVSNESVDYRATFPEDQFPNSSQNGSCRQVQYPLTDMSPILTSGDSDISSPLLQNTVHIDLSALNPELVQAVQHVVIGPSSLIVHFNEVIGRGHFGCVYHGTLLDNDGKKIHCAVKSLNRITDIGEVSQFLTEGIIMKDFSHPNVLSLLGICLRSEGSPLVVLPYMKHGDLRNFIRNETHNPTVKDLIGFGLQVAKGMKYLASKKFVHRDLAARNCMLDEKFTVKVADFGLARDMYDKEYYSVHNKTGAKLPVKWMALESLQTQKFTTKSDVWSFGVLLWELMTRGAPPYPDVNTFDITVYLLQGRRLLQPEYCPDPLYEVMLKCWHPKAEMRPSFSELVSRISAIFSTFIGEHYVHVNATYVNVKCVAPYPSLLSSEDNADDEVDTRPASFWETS
Summary of the method: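 Wells were coated with 10 μg/mL phospholipase C-γ substrate in TBS, and reactions were started with 10 ng/mL c-Met cytoplasmic domain and run at 37° C for 15 minutes. Phosphorylated product was detected with Eu-N1-labeled PT66 antibody. IC50 values came from sigmoidal variable-slope fits of percent inhibition versus log compound concentration.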

[3] = ALK kinase inhibition, 1 μM ATP (Km level), read-out: ALK Activity
[4] = c-Met kinase inhibition, 1 μM ATP (Km level), read-out: cMet Activity
[5] = ALK kinase inhibition, 1 μM ATP, read-out: ALK Activity
[6] = c-Met kinase inhibition, 1 μM ATP, read-out: cMet Activity
[7] = 1 μM ATP (Km level), 30 ng/ml ALK, 37° C., 15 minutes, read-out: ALK Activity (ALK kinase inhibition, IC50 class)
[8] = 1 μM ATP (Km level), 10 ng/mL c-Met, read-out: cMet Activity (c-Met kinase inhibition, IC50 class)
[9] = 1 μM ATP (Km level), read-out: ALK Activity (ALK Kinase Inhibition, IC50)
[10] = 1 μM ATP (Km level), read-out: cMet Activity (c-Met Kinase Inhibition, IC50)

T1 sequence (Q9UM73 19-1620): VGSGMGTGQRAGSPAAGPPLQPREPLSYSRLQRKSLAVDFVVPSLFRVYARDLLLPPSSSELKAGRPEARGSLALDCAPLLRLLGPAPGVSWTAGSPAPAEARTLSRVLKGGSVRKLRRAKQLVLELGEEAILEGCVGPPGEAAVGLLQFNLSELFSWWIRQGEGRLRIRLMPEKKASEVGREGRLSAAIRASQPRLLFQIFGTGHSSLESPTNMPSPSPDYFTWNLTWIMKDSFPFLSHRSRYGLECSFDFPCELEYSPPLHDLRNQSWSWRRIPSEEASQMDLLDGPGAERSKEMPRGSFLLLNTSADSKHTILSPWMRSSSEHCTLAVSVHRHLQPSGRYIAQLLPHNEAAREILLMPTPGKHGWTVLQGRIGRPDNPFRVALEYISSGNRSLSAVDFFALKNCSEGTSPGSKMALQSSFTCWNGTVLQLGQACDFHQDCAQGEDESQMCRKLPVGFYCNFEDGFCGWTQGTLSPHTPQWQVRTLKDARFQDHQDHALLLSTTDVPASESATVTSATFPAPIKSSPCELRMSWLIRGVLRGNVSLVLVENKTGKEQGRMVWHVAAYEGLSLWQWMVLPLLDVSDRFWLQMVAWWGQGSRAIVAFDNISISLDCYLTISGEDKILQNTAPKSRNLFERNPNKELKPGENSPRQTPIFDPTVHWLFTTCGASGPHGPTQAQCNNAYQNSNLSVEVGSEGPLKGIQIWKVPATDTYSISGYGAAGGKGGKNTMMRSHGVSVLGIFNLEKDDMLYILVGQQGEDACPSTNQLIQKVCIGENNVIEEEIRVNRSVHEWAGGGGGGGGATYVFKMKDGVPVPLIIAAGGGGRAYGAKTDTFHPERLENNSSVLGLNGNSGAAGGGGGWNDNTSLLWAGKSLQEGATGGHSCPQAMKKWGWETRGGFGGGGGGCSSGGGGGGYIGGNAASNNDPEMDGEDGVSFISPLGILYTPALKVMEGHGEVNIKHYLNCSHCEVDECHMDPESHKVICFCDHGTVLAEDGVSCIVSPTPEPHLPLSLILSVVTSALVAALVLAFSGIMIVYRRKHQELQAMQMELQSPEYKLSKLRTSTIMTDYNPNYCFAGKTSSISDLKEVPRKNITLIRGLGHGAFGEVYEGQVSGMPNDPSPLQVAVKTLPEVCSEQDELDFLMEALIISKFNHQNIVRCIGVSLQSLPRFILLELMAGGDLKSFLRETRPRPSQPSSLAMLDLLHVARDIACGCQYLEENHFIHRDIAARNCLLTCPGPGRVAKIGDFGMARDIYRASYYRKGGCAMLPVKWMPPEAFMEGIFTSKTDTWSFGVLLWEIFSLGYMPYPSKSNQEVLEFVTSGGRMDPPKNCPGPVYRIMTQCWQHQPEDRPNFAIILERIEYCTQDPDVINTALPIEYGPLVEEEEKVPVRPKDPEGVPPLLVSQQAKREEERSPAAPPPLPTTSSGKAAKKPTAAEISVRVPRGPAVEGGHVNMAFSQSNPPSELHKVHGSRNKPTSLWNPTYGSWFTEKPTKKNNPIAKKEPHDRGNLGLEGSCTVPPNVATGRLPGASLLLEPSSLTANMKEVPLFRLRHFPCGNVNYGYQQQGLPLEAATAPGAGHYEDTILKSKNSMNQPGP

| IC50 [1, 3] [nM] | IC50 [2, 4] [nM] | IC50 [1, 5] [nM] | IC50 [2, 6] [nM] | Molecule | other results |
| --- | --- | --- | --- | --- | --- |
| – | – | 100 to 1000 | < 100 | CNC(=O)c1scc(C)c1Nc1nc(Nc2ccc3c(c2)NC(=O)CN(C)C3)ncc1Cl [Example 1868, 3-[5-Chloro-2-(4-methyl-2-oxo-2,3,4,5-tetrahydro-1H-benzo[e][1,4]diazepin-8-ylamino)-pyrimidin-4-ylamino]-4-methyl-thiophene-2-carboxylic acid methylamide] | – |
| – | – | 100 to 1000 | 100 to 1000 | CNC(=O)c1ccsc1Nc1nc(Nc2ccc3c(c2)CCCC(=O)N3C)ncc1Cl [Example 1487, 2-[5-Chloro-2-(1-methyl-2-oxo-2,3,4,5-tetrahydro-1H-benzo[b]azepin-7-ylamino)-pyrimidin-4-ylamino]-thiophene-3-carboxylic acid methylamide] | – |
| – | – | < 100 | > 10000 | COc1cc2c(cc1Nc1ncc(Cl)c(N[C@@H]3CCCC[C@H]3NS(C)(=O)=O)n1)NC(=O)CN(CC1CC1)C2 [Example 1666, N-(1R,2R)-{2-[5-Chloro-2-(4-cyclopropylmethyl-7-methoxy-2-oxo-2,3,4,5-tetrahydro-1H-benzo[e][1,4]diazepin-8-ylamino)-pyrimidin-4-ylamino]-cyclohexyl}-methanesulfonamide] | – |
| – | – | 100 to 1000 | > 10000 | COCCN1CCCC(C)(C)c2ccc(Nc3ncc(Cl)c(Nc4ccc(N5CCOCC5)cc4OC)n3)cc21 [Example 1601, 5-Chloro-N*2*-[1-(2-methoxy-ethyl)-5,5-dimethyl-2,3,4,5-tetrahydro-1H-benzo[b]azepin-8-yl]-N*4*-(2-methoxy-4-morpholin-4-yl-phenyl)-pyrimidine-2,4-diamine] | – |
| – | – | < 100 | > 10000 | COc1cc2c(cc1Nc1ncc(Cl)c(N[C@H]3[C@@H](C(N)=O)[C@@H]4C=C[C@H]3C4)n1)CCN(CC(=O)N1CCN(C)CC1)CC2 [Example 1539, (1S,2S,3R,4R)-3-(5-Chloro-2-{8-methoxy-3-[2-(4-methyl-piperazin-1-yl)-2-oxo-ethyl]-2,3,4,5-tetrahydro-1H-3-benzazepin-7-ylamino}-pyrimidin-4-ylamino)-bicyclo[2.2.1]hept-5-ene-2-carboxylic acid amide] | – |
| – | – | 100 to 1000 | < 100 | Cc1nnc(-c2ccccc2Nc2nc(Nc3ccc4c(c3)CCOC(=O)N4C)ncc2Cl)o1 [Example 1786, 2-{5-Chloro-4-[2-(5-methyl-[1,3,4]oxadiazol-2-yl)-phenylamino]-pyrimidin-2-ylamino}-5-methyl-8,9-dihydro-5H-7-oxa-5-aza-benzocyclohepten-6-one] | – |
| – | – | < 100 | > 10000 | CCN1CCNCc2cc(OC)c(Nc3ncc(Cl)c(N[C@H]4[C@@H](C(N)=O)[C@@H]5C=C[C@H]4C5)n3)cc21 [Example 1460, (1S,2S,3R,4R)-3-[5-Chloro-2-(1-ethyl-7-methoxy-2,3,4,5-tetrahydro-1H-benzo[e][1,4]diazepin-8-ylamino)-pyrimidin-4-ylamino]-bicyclo[2.2.1]hept-5-ene-2-carboxylic acid amide] | – |
| – | – | 1000 to 10000 | < 100 | CNC(=O)c1ccccc1Nc1nc(Nc2ccc3c(c2)NC(=O)CN(C)C3)ncc1Cl [Example 1867, 2-[5-Chloro-2-(4-methyl-2-oxo-2,3,4,5-tetrahydro-1H-benzo[e][1,4]diazepin-8-ylamino)-pyrimidin-4-ylamino]-N-methyl-benzamide] | – |

Second part, the molecule before the results:

| Molecule | IC50 [1, 3] [nM] | IC50 [2, 4] [nM] | IC50 [1, 5] [nM] | IC50 [2, 6] [nM] | other results |
| --- | --- | --- | --- | --- | --- |
| CC(C)N1C2CCC1c1cc(Nc3ncc(Cl)c(N[C@@H]4CCCC[C@H]4NS(C)(=O)=O)n3)ccc1C2 (stereo partly drawn) [Example 83, N-{(1R,2R)-2-[5-Chloro-2-(12-isopropyl-12-aza-tricyclo[7.2.1.0*2,7*]dodeca-2(7),3,5-trien-4-ylamino)-pyrimidin-4-ylamino]-cyclohexyl}-methanesulfonamide] | < 100 | 100 to 1000 | – | – | – |
| CCN1CCc2ccc(Nc3ncc(Cl)c(Nc4cc(Cl)ccc4C(=O)NC)n3)cc2CC1 [Example 33, 4-Chloro-2-[5-chloro-2-(3-ethyl-2,3,4,5-tetrahydro-1H-benzo[d]azepin-7-ylamino)-pyrimidin-4-ylamino]-N-methyl-benzamide] | < 100 | < 100 | – | – | – |
| CNC(=O)c1cccc(F)c1Nc1nc(Nc2ccc3c(c2)NC(=O)C(N2CCOCC2)CC3(C)C)ncc1Cl (stereo not shown) [Example 1288, 2-[5-Chloro-2-(5,5-dimethyl-3-morpholin-4-yl-2-oxo-2,3,4,5-tetrahydro-1H-1-benzazepin-8-ylamino)-pyrimidin-4-ylamino]-3-fluoro-N-methyl-benzamide] | – | – | – | – | IC50 [1, 7]: 100 to 1000 nM; IC50 [2, 8]: < 100 nM |
| CN(CCC#N)c1cccc(F)c1Nc1nc(Nc2ccc3c(c2)NC(=O)CCC3(C)C)ncc1Cl [Example 1263, 3-({2-[5-Chloro-2-(5,5-dimethyl-2-oxo-2,3,4,5-tetrahydro-1H-1-benzazepin-8-ylamino)-pyrimidin-4-ylamino]-3-fluoro-phenyl}-methyl-amino)-propionitrile] | – | – | – | – | IC50 [1, 7]: 100 to 1000 nM; IC50 [2, 8]: 1000 to 10000 nM |
| C#CCN1CCc2ccc(Nc3ncc(Cl)c(Nc4ccccc4C(=O)NC)n3)cc2CC1 [Example 322, 2-[5-Chloro-2-(3-prop-2-ynyl-2,3,4,5-tetrahydro-1H-benzo[d]azepin-7-ylamino)-pyrimidin-4-ylamino]-N-methyl-benzamide] | < 100 | < 100 | – | – | – |
| 5-Chloro-N*2*,N*4*-bis-(3-ethyl-2,3,4,5-tetrahydro-1H-benzo[d]azepin-7-yl)-pyridine-2,4-diamine [Example 199] | < 100 | 1000 to 10000 | – | – | – |
| CCN1C(=O)C(NC(=O)C(F)(F)F)CCc2c1ccc(Nc1ncc(Cl)c(N[C@@H]3CCCC[C@H]3NS(C)(=O)=O)n1)c2OC (stereo partly drawn) [Example 1335, N-{7-[5-Chloro-4-((1R,2R)-2-methanesulfonylamino-cyclohexylamino)-pyrimidin-2-ylamino]-1-ethyl-6-methoxy-2-oxo-2,3,4,5-tetrahydro-1H-benzo[b]azepin-3-yl}-2,2,2-trifluoro-acetamide] | – | – | – | – | IC50 [1, 7]: < 100 nM; IC50 [2, 8]: > 10000 nM |
| COc1cc2c(cc1Nc1ncc(Cl)c(N[C@H]3[C@@H](C(N)=O)[C@@H]4C=C[C@H]3C4)n1)CCN(CC(F)F)CC2 (relative stereo) [Example 763, (2-exo,3-exo)-3-{5-Chloro-2-[3-(2,2-difluoro-ethyl)-8-methoxy-2,3,4,5-tetrahydro-1H-benzo[d]azepin-7-ylamino]-pyrimidin-4-ylamino}-bicyclo[2.2.1]hept-5-ene-2-carboxylic acid amide] | – | – | – | – | IC50 [1, 9]: < 100 nM; IC50 [2, 10]: > 10000 nM |
| COc1cc2c(cc1Nc1ncc(Cl)c(N[C@@H]3CCCC[C@H]3NS(C)(=O)=O)n1)CCN(CCS(C)(=O)=O)CC2 [Example 1122, N-((1R,2R)-2-{5-Chloro-2-[3-(2-methanesulfonyl-ethyl)-8-methoxy-2,3,4,5-tetrahydro-1H-benzo[d]azepin-7-ylamino]-pyrimidin-4-ylamino}-cyclohexyl)-methanesulfonamide] | – | – | – | – | IC50 [1, 7]: < 100 nM; IC50 [2, 8]: > 10000 nM |
| Cc1cccnc1-c1ccccc1Nc1nc(Nc2ccc3c(c2)CCC(N2CCOCC2)CC3)ncc1Cl (stereo not shown) [Example 1020, 5-Chloro-N*4*-[2-(3-methyl-pyridin-2-yl)-phenyl]-N*2*-(7-morpholin-4-yl-6,7,8,9-tetrahydro-5H-benzocyclohepten-2-yl)-pyrimidine-2,4-diamine] | – | – | – | – | IC50 [1, 7]: < 100 nM; IC50 [2, 8]: 1000 to 10000 nM |
| COc1cc2c(cc1Nc1ncc(Cl)c(Nc3ccc(N4CCN(C(C)C)CC4)c4c3C(=O)N(C)C4)n1)CCN(CCO)CC2 [Example 953, 7-{5-Chloro-2-[3-(2-hydroxy-ethyl)-8-methoxy-2,3,4,5-tetrahydro-1H-3-benzazepin-7-ylamino]-pyrimidin-4-ylamino}-4-(4-isopropyl-piperazin-1-yl)-2-methyl-2,3-dihydro-isoindol-1-one] | – | – | – | – | IC50 [1, 9]: < 100 nM; IC50 [2, 10]: > 10000 nM |
| CCOC(=O)N1C2CCC1c1cc(Nc3ncc(Cl)c(Nc4ccccc4C(=O)NC)n3)ccc1C2 (stereo not shown) [Example 67, 4-[5-Chloro-4-(2-methylcarbamoyl-phenylamino)-pyrimidin-2-ylamino]-12-aza-tricyclo[7.2.1.0*2,7*]dodeca-2(7),3,5-triene-12-carboxylic acid ethyl ester] | < 100 | < 100 | – | – | – |
| CCN1CCc2ccc(Nc3ncc([N+](=O)[O-])c(Nc4ccccc4C(=O)NC)n3)cc2CC1 [Example 193, 2-[2-(3-Ethyl-2,3,4,5-tetrahydro-1H-benzo[d]azepin-7-ylamino)-5-nitro-pyrimidin-4-ylamino]-N-methyl-benzamide] | < 100 | 100 to 1000 | – | – | – |
| CNC(=O)c1ccccc1Nc1nc(Nc2ccc3c(c2)COC[C@@H]2CCCN32)ncc1Cl [Example 12, 2-{5-Chloro-2-[(S)-(2,3,3a,4-tetrahydro-1H,6H-5-oxa-10b-aza-benzo[e]azulen-8-yl)amino]-pyrimidin-4-ylamino}-N-methyl-benzamide] | < 100 | < 100 | – | – | – |
| CNC(=O)c1ccccc1Nc1nc(Nc2cc3c(cc2OC)CCN(CC(=O)N(C)C)CC3)ncc1Cl [Example 259, 2-[5-Chloro-2-(3-dimethylcarbamoylmethyl-8-methoxy-2,3,4,5-tetrahydro-1H-benzo[d]azepin-7-ylamino)-pyrimidin-4-ylamino]-N-methyl-benzamide] | < 100 | 100 to 1000 | – | – | – |
